One substance from patent publication EP3294317B1, “ENHANCED ANTIBIOTIC COMPOSITION” (Universitat Autònoma de Barcelona, priority 2015, dated 2016) can be followed below.

In assay [1] the test system is Salmonella enterica subsp. enterica ATCC 14028. Kind of assay: Colistin broth microdilution MIC with potentiator compounds (Example 1). It counts as cell-based. To be noted: S. enterica ATCC 14028; colistin without potentiator. (Broth dilution looks for growth in wells or tubes with falling amounts of substance.)
For assay [2], the system named is Stenotrophomonas maltophilia ATCC 13637. Described as above. It counts as cell-based. To be noted: S. maltophilia ATCC 13637; colistin without potentiator.
The subject of assay [3] is Enterobacter aerogenes ATCC 13048. The assay is described as above. It counts as cell-based. To be noted: E. aerogenes ATCC 13048; colistin without potentiator.
For assay [4], the system named is Escherichia coli ATCC 25922. The assay is described as above. It counts as cell-based. To be noted: E. coli ATCC 25922; colistin without potentiator.
For another assay, the system named is A. baumannii 6963. Kind of assay: Colistin broth microdilution MIC with potentiator compounds, resistant clinical isolates (Example 3). In kind it is cell-based, Acinetobacter baumannii. To be noted: colistin without potentiator. Here is the method: (§1) The potentiator effect of the compound of the invention and other compounds disclosed herein was tested using colistin sulfate as antibiotic and in combination with the enhancer compounds in front of resistant clinical isolates.
(§2) Tests were performed to determine the potentiator effect of the compound of the invention and other compounds disclosed herein with multidrug-resistant S. maltophilia and A. baumannii clinical strains as shown in Table 5: TABLE 5
(§3) For this experiment the potentiator compound was added to a colistin broth microdilution assay at a final concentration of 0.1mM. MICs were determined as described in the Example 1.
(§4) Colistin minimal inhibitory concentration (MIC), expressed in µg/mL, and the fold increase in bacterial susceptibility to colistin when combined with the potentiator compound (expressed as MIC in the presence of 1.0% DMSO / MIC in the presence of 0.1 mM of each potentiator compound and 1.0% DMSO) are shown in Table 6: […]

In another assay the test system is A. baumannii 6799. The assay is described as above. In kind it is cell-based, Acinetobacter baumannii. The settings on record: colistin without potentiator. On the procedure:
as §1, §2, §3, §4

A further assay concerns S. maltophilia D457. The assay is described as above. It counts as cell-based, Stenotrophomonas maltophilia. The settings on record: colistin without potentiator. On the procedure:
as §1, §2, §3, §4

Another assay deals with S. maltophilia M30. The description is as above. In kind it is cell-based, Stenotrophomonas maltophilia. The settings on record: colistin without potentiator. Here is the method: as §1, §2, §3, §4
The test system of the next assay is S. maltophilia 197. The assay is described as above. In kind it is cell-based, Stenotrophomonas maltophilia. The settings on record: colistin without potentiator. On the procedure:
as §1, §2, §3, §4

A further assay has as its system S. maltophilia 53149. The assay is described as above. The settings on record: colistin without potentiator. In kind it is cell-based, Stenotrophomonas maltophilia. On the procedure: as §1, §2, §3, §4
In a further assay the test system is S. maltophilia 257. The description is as above. To be noted: colistin without potentiator. It counts as cell-based, Stenotrophomonas maltophilia. On the procedure:
as §1, §2, §3, §4

For assay [5], the system named is Escherichia coli ATCC 9637. Kind of assay: Colistin broth microdilution MIC with potentiator compounds (Example 1). To be noted: E. coli ATCC 9637; colistin without potentiator. In kind it is cell-based.
For the next assay, the system named is S. maltophilia K279a. The assay can be described thus: Colistin broth microdilution MIC with compound of formula I prepared in methanol or DMSO (Example 6). It counts as cell-based, Stenotrophomonas maltophilia. The settings on record: microdilution test with MHB, colistin without potentiator. On the procedure:
(§5) The potentiator effect of the compound of the invention in a new formulation was tested by using colistin sulphate as antibiotic in combination with the enhancer compound of formula I in front of resistant clinical isolates. […]
(§6) Tests were performed to determine the potentiator effect of the compound of the invention with two colistin resistant S. maltophilia strains as shown in Table 9. S. maltophilia K279a is a reference clinical strain. The origin of clinical strain OC323 together with K279a has been described previously (Huedo et al., Two Different rpf Clusters Distributed among a Population of Stenotrophomonas maltophilia Clinical Strains Display Differential Diffusible Signal Factor Production and Virulence Regulation, J. Bacteriol., 2014, 196, 2431-2442).
(§7) Selected compound of formula I was first dissolved in 100% of Methanol (HPLC Gradient Grade CHROMASOLV. Sigma, 34885-1L-R) to 10 mM. The compound was fairly soluble in methanol up to 10 mM and required vigorous vortex.
(§8) […] MICs were determined as described in the Example 1.
(§9) Strains colistin minimal inhibitory concentration (MIC), expressed in µg/mL, and the fold increase in bacterial susceptibility to colistin when combined with the potentiator compound previously dissolved in methanol ([…]) are shown in Table 9: TABLE 9

For another assay, the system named is S. maltophilia OC323. The description is as above. In kind it is cell-based, Stenotrophomonas maltophilia. To be noted: microdilution test with MHB, colistin without potentiator. On the procedure:
as §5, §6, §7, §8, §9

Assay [6] deals with Acinetobacter baumannii ATCC 15308. The assay can be described thus: Colistin broth microdilution MIC with potentiator compounds (Example 1). It counts as cell-based. The settings on record: A. baumannii ATCC 15308; colistin without potentiator.
The test system of assay [7] is Pseudomonas aeruginosa ATCC 27853. The assay is described as above. In kind it is cell-based. The settings on record: P. aeruginosa ATCC 27853; colistin without potentiator.
In assay [8] the test system is Pseudomonas aeruginosa PAO1. The assay is described as above. In kind it is cell-based. To be noted: P. aeruginosa PAO1; colistin without potentiator.

Turning to colistin [reference compound], the “Colistin MIC” value amounted to 2 µg/mL in [1]; 8 µg/mL in assay [2]; 1 µg/mL in assay [3]; 1 µg/mL in assay [4]; 0.125 µg/mL in the assay with A. baumannii 6963; 0.125 µg/mL in the assay with A. baumannii 6799. Besides, the “Colistin MIC” value in the assay on S. maltophilia D457 amounted to 32 µg/mL; with S. maltophilia M30, 32 µg/mL; in the assay on S. maltophilia 197 it was 32 µg/mL; with S. maltophilia 53149 it was 32 µg/mL; with S. maltophilia 257, 64 µg/mL; in assay [5] it was 0.5 µg/mL. In addition, the results for the “Colistin MIC” value in [6], in assay [7] and in assay [8] were 0.5 µg/mL, 0.5 µg/mL and 1 µg/mL, respectively. Also, the values for the MIC to colistin result with S. maltophilia K279a and with S. maltophilia OC323 were “S. maltophilia K279a (16 µg/mL)” and “S. maltophilia OC323 (32 µg/mL)”, respectively.
